This note sets out measurements from publication PMC7307922 (Journal of Medicinal Chemistry, 2020).

A short description of one data set: in vivo. The note with it: male, BALB/c, mouse. The protocol: The study was performed by Bienta (www.bienta.net). Study design, animal selection, handling, and treatment were all in accordance with the Enamine PK study protocols and Institutional Animal Care and Use Guidelines. Animal treatment and plasma samples preparation were conducted by the Animal Laboratory personnel at Enamine/Bienta. […] The animals were randomly assigned to the treatment groups before the pharmacokinetic study; all animals were fasted for 4 h before dosing. […] Each of the time point treatment group included four animals. There was also a control group of two animals. […] Dosing volumes of compounds or vehicle was 5 mL/kg. Mice were injected iv with 2,2,2-tribromoethanol at the dose of 150 mg/kg prior to drawing the blood. Blood collection was performed from the orbital sinus in microtainers containing K2EDTA. Animals were sacrificed by cervical dislocation after the blood sample collection. All samples were immediately processed, flash-frozen, and stored at −70 °C until subsequent analysis. […] After mixing by pipetting and centrifuging for 4 min at 6000 rpm, 0.5–1 μL of each supernatant was analyzed by HPLC-MS/MS on an API 3000 PE instrument.

The target in a further data set is T1, human FFA2 (Homo sapiens, UniProt O15552).
T1 construct: expressed in transfected cells; host or cells: Flp-In T-REx 293, doxycycline-induced
T1 sequence (O15552 1-330): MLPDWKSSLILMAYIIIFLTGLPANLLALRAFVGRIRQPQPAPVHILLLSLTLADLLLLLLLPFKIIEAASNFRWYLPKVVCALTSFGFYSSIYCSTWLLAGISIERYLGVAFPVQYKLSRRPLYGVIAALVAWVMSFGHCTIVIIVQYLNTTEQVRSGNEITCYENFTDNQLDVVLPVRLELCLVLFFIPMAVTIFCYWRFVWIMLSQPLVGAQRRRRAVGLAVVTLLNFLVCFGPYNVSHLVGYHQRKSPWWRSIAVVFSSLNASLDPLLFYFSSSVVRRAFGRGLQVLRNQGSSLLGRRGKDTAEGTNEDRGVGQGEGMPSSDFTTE
Description: FFA2 counterscreen, cAMP assay. It is filed as cell-based. Particulars: 10 μM. The protocol: Counter screening against FFA1, FFA2 , FF A4 and GPR84 […]
Counter screening for FFA2 was carried out using a cAMP assay. Flp-In T-Re x 293 cells generated to stably express human FFA2 tagged at is C-terminal with eYFP were first treated with doxycycline (100 ng/mL) overnight to induce receptor expressi on. Cells were then detached and used directly in an HT R-FRET cAMP assay (CisBio) according to the manufacturer’s protocol and measured using a Pherastar FS plate reader (BMG Labtech, Aylesbury, UK). For these experiments, 2000 cells were used per well in a low volume 384-well plate and compounds were tested against their ability to inhibit the cAMP response to 1 µM forskolin for 30 min. […]
A general note: The purpose of a counterscreen is to sort out artefacts and off-target activity.

The target in the next data set is T2, human FFA4 (Homo sapiens, UniProt Q5NUL3).
T2 construct: expressed in transfected cells; host or cells: HEK293T, transient co-transfection
T2 sequence (Q5NUL3 1-361): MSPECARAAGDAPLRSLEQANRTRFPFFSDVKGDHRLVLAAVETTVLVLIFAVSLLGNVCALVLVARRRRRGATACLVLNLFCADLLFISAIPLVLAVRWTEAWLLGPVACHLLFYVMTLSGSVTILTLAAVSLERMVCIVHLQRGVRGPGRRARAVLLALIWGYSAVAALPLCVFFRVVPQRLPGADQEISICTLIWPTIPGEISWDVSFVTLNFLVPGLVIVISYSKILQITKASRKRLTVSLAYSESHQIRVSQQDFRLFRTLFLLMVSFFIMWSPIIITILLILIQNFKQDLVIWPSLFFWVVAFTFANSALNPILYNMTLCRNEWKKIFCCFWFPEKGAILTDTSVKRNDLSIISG
The data set can be described thus: FFA4 counterscreen, arrestin BRET assay. Particulars: 10 μM. It is filed as cell-based. As for the experimental part:
Counter screening against FFA1, FFA2 , FF A4 and GPR84
Counter screening against FFA1 and FFA4 was carried out using a modified version of a previously described bioluminescence resonance energy transfer (BRET) designed to assess recruitment of b-ar r estin-2 to each receptor.2 Briefly, HEK293T cells were co-transfected with plasmids en coding either human FFA1 or human FFA4 tagged at their C -termini with eYFP and with a plasmid encoding b-ar r estin-2 tagged at its N-terminal with Nanoluciferase. 24 h post transfection cells were seeded into black with clear bottom 96-well plates that had been coated with poly-D-lysine. Cells were then cultured a further 24 h prior to experiments. Cells were then washed twice with Hank’s Balanced salt solution supplemented with 10 mM HEPES (HBSSH) then incubated at 37 °C in HBSSH for 30 min prior to running the assay. The Nluc substrate, coelenterazine h was then added to a f inal concentration of 5 µM and cells were incubated at 37 °C for 10 min prior to adding test agonists. Following a further 5 min incubation, luminescent emission at 475 nm and 535 nm was measured using a Pherastar FS reader (BMG Labtech, Aylesbury, UK) pla te reader set for bottom plate optics. The BRET ratio was then calculated as 535/475 emissions and all BRET ratio values were normalized against the maxima l BRET ratio obtained using reference agonists for the respective receptors (TUG -891 for FFA4, TUG-770 for FFA1). For antagonism studies, the same protocol was used, however the antagonist was added 15 min prior to the addition of an EC 80 concentration of the reference agonist for each receptor. […]

What is called Vd is the apparent volume that relates the amount in the body to the concentration in plasma or blood. High values mean extensive tissue distribution, low ones confinement near the circulation. What is called clearance is the rate of elimination divided by the concentration. Read a low clearance as inefficient removal. Usually half-life stands for how long it takes for the measured level to halve. As a reminder, the AUC(0-inf) is total exposure, with the tail of the curve extrapolated. What is called Cmax is the peak of the concentration-time curve. What is called Tmax is the time from dosing to the highest level. Usually bioavailability stands for the share of a dose that reaches the circulation, judged against a reference dose that is usually intravenous. In “in vivo” (iv, 5 mg/kg), `CC1=C(C(=O)Nc2ccccc2C)C(c2ccco2)C2=C(CCCC2=O)N1` (centres unmarked) [Compound 1, 4-(Furan-2-yl)-2-methyl-5-oxo-N-(o-tolyl)-1,4,5,6,7,8-hexahydroquinoline-3-carboxamide, reference compound] displayed a Vd at 24 h of 0.759 L/kg, a clearance at 24 h of 8.45 mL/min/kg and a half-life at 24 h of 62.2 min. For the same compound, in the data set “in vivo” (po, 10 mg/kg), the AUC(0-inf) at 24 h is 14400 ng·h/mL, the Cmax at 24 h was found to be 7470 ng/mL, the Tmax at 24 h was 15 min and the bioavailability at 24 h turned out to be 73%. The same compound had a half-life at 24 h in “in vivo” (po, 10 mg/kg) of 89.7 min. Further, the “activity at FFA2” value at human FFA2 is listed as “No significant activity”. The “activity at FFA4” value at human FFA4 was “No significant activity”.
For `CC1=C(C(=O)Nc2cc(Cl)ccc2Cl)C(c2ccco2)C2=C(CCCC2=O)N1` (centres unmarked) [Compound 16, reference compound], in the data set “in vivo” (iv, 5 mg/kg), the Vd at 24 h was 0.629 L/kg, the clearance at 24 h is 19.6 mL/min/kg, the half-life worked out at 20 min and the half-life at 24 h worked out at 22.3 min. In “in vivo” (po, 10 mg/kg), the AUC(0-inf) at 24 h was 7050 ng·h/mL, the Cmax at 24 h worked out at 5740 ng/mL, the Tmax at 24 h was 30 min and the bioavailability at 24 h worked out at 88%. In “in vivo” (po, 10 mg/kg), the half-life at 24 h stood at 60.8 min. Moreover, the “activity at FFA2” value at human FFA2 was “No significant activity”. Besides, the “activity at FFA4” value at human FFA4 was “No significant activity”.
For `CCCC1C(C(=O)Nc2cc(Cl)ccc2Cl)=C(C)NC2=C1C(=O)CCC2` (centres unmarked) [Compound 57, N-(2,5-Dichlorophenyl)-2-methyl-5-oxo-4-propyl-1,4,5,6,7,8-hexahydroquinoline-3-carboxamide], in the data set “in vivo” (iv, 5 mg/kg), the Vd at 24 h is 1.15 L/kg, the clearance at 24 h turned out to be 70.3 mL/min/kg and the half-life at 24 h was 11.4 min. For the same compound, in “in vivo” (po, 10 mg/kg), the AUC(0-inf) at 24 h is 563 ng·h/mL, the Cmax at 24 h was found to be 561 ng/mL, the Tmax at 24 h was 30 min and the bioavailability at 24 h is 36%. In “in vivo” (po, 10 mg/kg), this compound gave a half-life at 24 h of 63.5 min. In addition, the “activity at FFA2” value at human FFA2 is reported as “No significant activity”. For the same compound, the “activity at FFA4” value at human FFA4 is given as “No significant activity”.
In “in vivo” (iv, 5 mg/kg), `CC1=C(C(=O)Nc2cc(Cl)ccc2Cl)C(C2CCCC2)C2=C(CCCC2=O)N1` (centres unmarked) [Compound 63, 4-Cyclopentyl-N-(2,5-dichlorophenyl)-2-methyl-5-oxo-1,4,5,6,7,8-hexahydroquinoline-3-carboxamide] registered a Vd at 24 h of 1.11 L/kg, a clearance at 24 h of 20.3 mL/min/kg and a half-life at 24 h of 37.8 min. For the same compound, in the data set “in vivo” (po, 10 mg/kg), the AUC(0-inf) at 24 h is 5420 ng·h/mL, the highest level (Cmax at 24 h) was 3800 ng/mL, the Tmax at 24 h is 15 min and the bioavailability at 24 h was 66%. In “in vivo” (po, 10 mg/kg), this compound returned a half-life at 24 h of 51.8 min. Further, the “activity at FFA2” value at human FFA2 is on record as “No significant activity”. On human FFA4, the “activity at FFA4” value was “No significant activity”.
